The results in this text go back to patent US10676449B2, “Electronically activated strained alkynes” (Wisconsin Alumni Research Foundation, priority 2017, dated 2020).

Assay type in all cases: physicochemical
Test [1] in a line: experimental rate comparison of cycloalkynes with diazoacetamide 8 and azidoacetamide 7. The note with it: ratio of rate constants with diazoacetamide and azidoacetamide. The source says:
For these exploratory studies, diazoacetamide 8 (Table 3) and azidoacetamide 7 were chosen because of the increased nucleophilicity of 8 as compared to azide 7 and its ability to survive cellular metabolism. When comparing rate differences with diazoacetamide 8 and azidoacetamide 7 for common cycloalkynes, DIBAC reacted˜5-times faster with the diazoacetamide than the analogous azide in 1:1 CD3CN:D2O. […] At the same time, these compounds provide for complete selectivity that is as of yet lacking in cyclooctynes. It was hypothesized by the present inventors that properly positioned heteroatoms in sulfamate-derived cyclooctynes would lead to an increase in diazo-selective reactivity over azides, thus enabling orthogonal bioconjugation techniques.
The effects of the various heteroatoms on this increased chemoselectivity were investigated computationally. […] In contrast, the ΔΔG‡ is expected to increase, likely due to increased steric repulsion from the bulky Boc-group. This difference in rate provides ˜9:1 selectivity in competition experiments involving 1:1:1 mixtures of diazoacetamide […]:alkyne (4d, 4e). Efforts to improve the selectivity for reaction with 1 were undertaken by examining the effects of both propargylic and homopropargylic heteroatoms in 4.

Test [2] is described as follows: strain-promoted 1,3-dipolar cycloaddition kinetics with benzyl azide (experimental second order rate constants). The following applies: for k2: 1,3-dipolar cycloaddition with benzyl azide 5, acetonitrile, ambient temperatures; for krel.: reaction with benzyl azide, relative to 4b = 1.0; for change of rate of reaction with benzyl azide, in words: relative to the comparator alkyne; for Experimental Rate: CD3CN. The source says: The reactivity of the novel strained alkyne derivatives disclosed herein were first assessed using benzyl azide 5 as a model substrate (Table 1, model reaction at top). […] When steric hindrance was increased by placing the more bulky isopropyl group at C1, the rate of the reaction slowed to a sixth of that of […]. […] The effects of the heteroatoms in the ring were similarly pronounced. […] For Me-substituted substrates 4a and 4d, the rates slowed to roughly half their unprotected values. While a more electron-poor nitrogen heteroatom is expected to result in a stronger electronic effect and an expected increase in reaction rate, the conflicting effects of bond lengthening and steric repulsion between the Boc and R^1 groups overrides any benefit and results in a net slowing of rate. Similarly, when the homopropargylic oxygen atom was replaced with a Boc-protected nitrogen atom, the rate fell dramatically to an eighteenth of that of the sulfamate (4f). The fastest substrate, 1a, compares favorably to other reported strained alkynes. It is faster than OCT, the exocyclic heteroatom-activated MOFO, and the endocyclic heteroatom-activated alkynes reported by Toomoka et al., supra. The reaction rate of 1a is surpassed only slightly by DIFO.
With the difluorinated SNO-OCT 8a in hand, preliminary kinetic studies were carried out (Table 7) and compared to computed and experimental rates of both the parent SNO-OCTs 4 and 6, as well as 8. A rate enhancement of 13-fold was predicted in moving from the parent SNO-OCT 6 (entry 1, right column) to the difluorinated SNO-OCT 8 (entry 3, right column) in reactions with alkyl azides; this was quite similar to the experimental rate enhancement seen in moving from 4 to 8a of 18× (entries 1 and 3 in the left column).

Test [3] can be described thus: experimental cycloaddition of SNO-OCTs with diazoacetamide. The following applies: dipole diazoacetamide; CD3CN. The source says: A rate enhancement of ˜300-fold was predicted in moving from the parent SNO-OCT 6 (entry 2, right column) to the difluorinated SNO-OCT 8 (entry 4, right column) in reactions with alkyl diazaoacetamides. Experimentally, the rate enhancement in moving from 4 to 8a (entries 2 and 4 in the left column) could not be determined using proton NMR spectroscopy to monitor the progress of the reaction. […] While orthogonality was also observed for reactions of 4 and 8a with azides, the selectivity appeared to be lower than that predicted for the diazoalkanes.

On to `CC1C#CCCOS(=O)(=O)N1` (stereo not drawn) [4a], for which the “k2 ratio, diazoacetamide:azidoacetamide” value in test [1] (CD3CN:D2O = 1:1) stood at 8.5. For the same compound, the “k2 ratio, diazoacetamide:azidoacetamide” value in test [1] (in CD3CN) turned out to be 3.0. Also, in test [2], the k2 is 0.066 M⁻¹ s⁻¹ and the krel. was 2.6.

Compound `CCCCCC1C#CCCOS(=O)(=O)N1` (stereo not drawn) [4b] had a krel. in test [2] of 1.0.

With `CC(C)C1C#CCCOS(=O)(=O)N1` (stereo not drawn) [4c], in test [2], the k2 was 0.0040 M⁻¹ s⁻¹; the krel. worked out at 0.16; the “change of rate of reaction with benzyl azide, in words” value (shortened to “change of rate of reaction”) is on record as “a sixth”.

As to `CC1C#CCCOS(=O)(=O)N1C(=O)OC(C)(C)C` (stereo not drawn) [4d], the “k2 ratio, diazoacetamide:azidoacetamide” value in test [1] (in CD3CN) is on record as 5.0. In addition, in test [2], the k2 turned out to be 0.037 M⁻¹ s⁻¹; the krel. worked out at 1.5; the “change of rate of reaction” value is recorded as “roughly half”.

`CCCCCC1C#CCCOS(=O)(=O)N1C(=O)OC(C)(C)C` (stereo not drawn) [4e]: in test [2], the k2 was found to be 0.042 M⁻¹ s⁻¹; the krel. was found to be 1.7; the “change of rate of reaction” value is “slowed slightly”.

As for `CC(C)C1C#CCCOS(=O)(=O)N1C(=O)OC(C)(C)C` (stereo not drawn) [4f], in test [2], the “change of rate of reaction” value is “an eighteenth”.

In test [2], `CC1C#CC(C)NS(=O)(=O)OC1` (stereo not drawn) [4g] came in with a k2 of 0.047 M⁻¹ s⁻¹ and a krel. of 1.9.

In test [2], `CCCCCC1C#CCCN(C(=O)OC(C)(C)C)S(=O)(=O)N1` (stereo not drawn) [4h] showed a k2 of 0.0014 M⁻¹ s⁻¹ and a krel. of 0.056.

For `CCC1C#CC(F)(F)COS(=O)(=O)N1` (stereo not drawn) [8a], in test [2] (dipole Bn—N3), the “Experimental Rate” value came to 0.46 M⁻¹ s⁻¹. For the same compound, in test [2] (reactions with alkyl azides (Bn—N3)), the “experimental rate enhancement in moving from 4” value is reported as 18 ×.

As to `CCCCCC1C#CCCOS(=O)(=O)N1` (stereo not drawn) [compound 4], in test [3], the “Experimental Rate” value amounted to 0.27 M⁻¹ s⁻¹.

Regarding `[N-]=[N+]=NCc1ccccc1` [compound 5], the “Experimental Rate (value in parentheses)” value in test [2] (dipole Bn—N3, 2:1 D2O:CD3CN) came out at 0.13 M⁻¹ s⁻¹. For the same compound, in test [2] (dipole Bn—N3), the “Experimental Rate” value came out at 0.087 M⁻¹ s⁻¹.

As for “dibenzoazacyclooctyne [DIBAC, reference compound]”, the figures for the “k2 ratio, diazoacetamide:azidoacetamide” value in test [1] (CD3CN:D2O = 1:1) and in test [1] (in CD3CN) were 6.5 and 2.0, respectively.
